Laboratory results reported in patent US5924973A, “Method of treating a disease process in a luminal structure” (The Trustees of Columbia University in the City of New York, priority 1996, dated 1999).
Where “and” joins values, the source holds several entries; their conditions need not be identical. Equal values may be shown once.

Tests used:
[1] = 188Re-MAG3 stability study at high radioactivity levels (HPLC, TLC); assay type: physicochemical
Procedure: Stability-^188 Re-MAG3 Stability Study at High Radioactivity Levels
^188 Re-MAG3 was prepared using the protocol as described above however using 1 mL generator eluate to dissolve the contents of a commercial MAG3 Kit and addition of 1 mL of SnCl2 /citrate solution. The starting activity in 1 ml generator eluate was 1220 Mbq (33 mCi). Thus the concentration of citrate and stannous ions were maintained, however the concentration of the Kit contents in especially the Benzoyl-MAG3 precursor is reduced to half of the original protocol.
The stability was tested using HPLC-chromatography and also TLC as additional control.

[2] = Stability of 188Re-MAG3 in presence of Hypaque contrast agent; assay type: physicochemical
Procedure: Stability of ^188 Re-MAG3 in Presence of Hypaque Contrast Agent
^188 Re-MAG3 was prepared as in the upper case starting with an activity of 851 Mbq (23 mCi). After the End of Synthesis, QC via HPLC and TLC, 2 mL of a 50% Triazoate solution was added. Triazoate is known as Hypaque and is the 3,5-Bis(acetylamino)-2,4,6-triiodobenzoic acid sodium salt.

[3] = HPLC and ITLC evaluation of 188Re-MAG3 up to five hours after preparation; assay type: physicochemical; conditions: periods up to five hours after preparation
[4] = MIRD calculation of individual organ dose of released 188Re-MAG3; conditions: based on animal data and human 99mTc-MAG3 distribution
Source text: As alluded to previously, the probability of balloon rupture at nominal balloon inflation pressures are substantially less than one percent. Animal experiments and calculations of the individual organ dose received by a ^188 Re-MAG3 release have been done. Because the isotope is in solution, there would be no significant local arterial deposition. In fact, attempts to intentionally deposit soluble compounds in vessel walls for their pharmacological properties have been notoriously poor. The distribution and elimination of simultaneously injected ^99 mTc-MAG3 and ^188 Re-MAG3 in rats are identical. Based upon these findings Dr. Michael Stabin of the Oak Ridge Institute for Science and Education (ORISE) has calculated, based on the MIRD formalism, the individual organ dose of released ^188 Re-MAG3. The only organ receiving a dose of greater than 5 cGy would be the urinary bladder wall. This assumes spontaneous urination every 4-6 hours. […] Thus, release of the isotope upon balloon rupture would necessitate placing a bladder catheter until the urinary counts excreted return to background. Based on animal data, and on human ^99m Tc-MAG3 distribution this should occur in less than 12 hours.

[5] = Dual label excretion studies of 188Re-MAG3 and 99mTc-MAG3 in rats (urine, feces); assay type: in vivo; parameters: Excretion kinetics of ^188 Re-MAG3 in feces of rats, 2 h / Excretion kinetics of ^188 Re-MAG3 in feces of rats, 8 h / Excretion kinetics of ^188 Re-MAG3 in feces of rats, 10 h / Excretion kinetics of ^188 Re-MAG3 in feces of rats, 12 h / Excretion kinetics of ^188 Re-MAG3 in feces of rats, 24 h / Excretion kinetics of ^188 Re-MAG3 in feces of rats, 48 h / Excretion kinetics of ^188 Re-MAG3 in feces of rats, Total: unit not given here
Source text: Comparison of the Excretion of ^188 Re-MAG3 with ^99 mTc-MAG3 in rats
Dual Label Excretion Studies of ^188 Re-MAG3 and ^99m Tc-MAG3 in Rats

[6] = Biodistribution of 99mTc-MAG3 and 188Re-MAG3 in a dual label study, tail vein injection; assay type: in vivo, rats; conditions: ± standard deviation
Source text: Biodistribution Data for ^99m Tc-MAG3 and ^188 Re-MAG3 in a dual label study

[7] = 20 min after mixing with Hypaque
[8] = 80 min after mixing with Hypaque
[9] = 140 min after mixing with Hypaque
[10] = EOS - before addition of Hypaque

O=C(O)C[N]1C(=O)C[N]2C(=O)C[N]3C(=O)C[S][188Re-]132=[O] [^188 Re-MAG3]
Stability, HPLC ([1]; 1 hour after EOS): 92.0%
Stability, HPLC ([1]; 2 hours after EOS): 91.1%
Stability, HPLC ([1]; 3 hours after EOS): 90.3%
Stability, HPLC ([1]; 4 hours after EOS): 88.3%
Stability, HPLC ([1]; 5 hours after EOS): 100.8%
Stability, HPLC ([1]; 24 hours after EOS): 92.4%
Stability, TLC ([1]; 24 hours after EOS): 93.4%
Stability, TLC ([1]; End of Synthesis (EOS)): 97.3%
Stability, HPLC ([1]; End of Synthesis (EOS), starting activity 1220 Mbq (33 mCi)): 97.3%
Stability in presence of Hypaque, HPLC [2, 7]: > 90%
Stability in presence of Hypaque, TLC [2, 7]: 94.4%
Stability in presence of Hypaque, TLC ([2]; 50 min after mixing with Hypaque): 90.5%
Stability in presence of Hypaque, HPLC [2, 8]: 86.6%
Stability in presence of Hypaque, TLC [2, 8]: 87.7%
Stability in presence of Hypaque, HPLC [2, 9]: 83.3%
Stability in presence of Hypaque, TLC [2, 9]: 83.3%
Stability in presence of Hypaque, HPLC [2, 10]: > 95%
Stability in presence of Hypaque, RP-Sep-Pak [2, 10]: 98.3%
Stability in presence of Hypaque, TLC [2, 10]: 97.6%
radioactive degradation product found ([2]; after mixing with Hypaque): free perrhenate
stability by HPLC and ITLC [3]: no decomposition or effects of radiolysis have been observed
time until urinary counts excreted return to background [4]: less than 12 hours
Excretion kinetics of ^188 Re-MAG3 in feces of rats, 2 h ([5]; feces, 2 h, individual rats #1-4, 120 min): 0.03 and 1.50 and 0.01
Excretion kinetics of ^188 Re-MAG3 in feces of rats, 4 h ([5]; feces, 4 h, individual rats #1-4): 0
Excretion kinetics of ^188 Re-MAG3 in feces of rats, 6 h ([5]; feces, 6 h, individual rats #1-4): 0
Excretion kinetics of ^188 Re-MAG3 in feces of rats, 8 h ([5]; feces, 8 h, individual rats #1-4, 480 min): 0.02 and 0 and 1.30 and 0.04
Excretion kinetics of ^188 Re-MAG3 in feces of rats, 10 h ([5]; feces, 10 h, individual rats #1-4, 600 min): 0.41 and 3.79 and 1.79 and 1.67
Excretion kinetics of ^188 Re-MAG3 in feces of rats, 12 h ([5]; feces, 12 h, individual rats #1-4, 720 min): 1.17 and 1.09 and 0 and 2.24
Excretion kinetics of ^188 Re-MAG3 in feces of rats, 24 h ([5]; feces, 24 h, individual rats #1-4, 1440 min): 5.86 and 6.46 and 4.47 and 3.46
Excretion kinetics of ^188 Re-MAG3 in feces of rats, 48 h ([5]; feces, 48 h, individual rats #1-4, 2880 min): 0.85 and 2.26 and 0.52 and 0.70
Excretion kinetics of ^188 Re-MAG3 in feces of rats, Total ([5]; feces, Total, individual rats #1-4): 8.34 and 15.1 and 8.08 and 8.12
Excretion kinetics of ^188 Re-MAG3 in feces of rats, Total, mean ([5]; feces, Total, mean of 4 rats, S.D. on separate line): 9.91
distribution and elimination, 99mTc-MAG3 versus 188Re-MAG3 ([5]; simultaneously injected in rats): identical
Excretion kinetics of ^188 Re-MAG3 in urine of rats, 6 h, mean ([5]; urine, 6 h, mean of 4 rats, S.D. on separate line): 0.97
Excretion kinetics of ^188 Re-MAG3 in urine of rats, 8 h, mean ([5]; urine, 8 h, mean of 4 rats, S.D. on separate line): 2.75
Excretion kinetics of ^188 Re-MAG3 in urine of rats, 10 h, mean ([5]; urine, 10 h, mean of 4 rats, S.D. on separate line): 1.15
Excretion kinetics of ^188 Re-MAG3 in urine of rats, 12 h, mean ([5]; urine, 12 h, mean of 4 rats, S.D. on separate line): 0.83
Excretion kinetics of ^188 Re-MAG3 in urine of rats, 24 h, mean ([5]; urine, 24 h, mean of 4 rats, S.D. on separate line): 5.07
Excretion kinetics of ^188 Re-MAG3 in urine of rats, 48 h, mean ([5]; urine, 48 h, mean of 4 rats, S.D. on separate line): 1.76
Excretion kinetics of ^188 Re-MAG3 in urine of rats, Total, mean ([5]; urine, Total, mean of 4 rats, S.D. on separate line): 81.97
Biodistribution of ^188 Re-MAG3, blood ([6]; 2 h): 0.07 ± 0.01 % inj. dose/g tissue
Biodistribution of ^188 Re-MAG3, blood ([6]; 6 h): 0.08 ± 0.02 % inj. dose/g tissue
Biodistribution of ^188 Re-MAG3, blood ([6]; 24 h): 0.05 ± 0.02 % inj. dose/g tissue
Biodistribution of ^188 Re-MAG3, bone ([6]; 2 h): 0.09 ± 0.11 % inj. dose/g tissue
Biodistribution of ^188 Re-MAG3, bone ([6]; 6 h): 0.01 ± 0.01 % inj. dose/g tissue
Biodistribution of ^188 Re-MAG3, bone ([6]; 24 h): 0.04 ± 0.05 % inj. dose/g tissue
Biodistribution of ^188 Re-MAG3, contents of l.i. ([6]; 2 h): 0.87 ± 0.32 % inj. dose/g tissue
Biodistribution of ^188 Re-MAG3, contents of l.i. ([6]; 6 h): 1.42 ± 0.33 % inj. dose/g tissue
Biodistribution of ^188 Re-MAG3, contents of l.i. ([6]; 24 h): 0.05 ± 0.01 % inj. dose/g tissue
Biodistribution of ^188 Re-MAG3, contents of s.i. ([6]; 2 h): 1.97 ± 2.58 % inj. dose/g tissue
Biodistribution of ^188 Re-MAG3, contents of s.i. ([6]; 6 h): 0.06 ± 0.05 % inj. dose/g tissue
Biodistribution of ^188 Re-MAG3, contents of s.i. ([6]; 24 h): 0.02 ± 0.01 % inj. dose/g tissue
Biodistribution of ^188 Re-MAG3, heart ([6]; 2 h): 0.02 ± 0.03 % inj. dose/g tissue
Biodistribution of ^188 Re-MAG3, heart ([6]; 6 h): 0.00 ± 0.00 % inj. dose/g tissue
Biodistribution of ^188 Re-MAG3, heart ([6]; 24 h): 0.01 ± 0.00 % inj. dose/g tissue
Biodistribution of ^188 Re-MAG3, kidneys ([6]; 2 h): 0.12 ± 0.03 % inj. dose/g tissue
Biodistribution of ^188 Re-MAG3, kidneys ([6]; 6 h): 0.11 ± 0.02 % inj. dose/g tissue
Biodistribution of ^188 Re-MAG3, kidneys ([6]; 24 h): 0.07 ± 0.01 % inj. dose/g tissue
Biodistribution of ^188 Re-MAG3, l. intestine ([6]; 2 h): 0.06 ± 0.02 % inj. dose/g tissue
Biodistribution of ^188 Re-MAG3, l. intestine ([6]; 6 h): 0.13 ± 0.03 % inj. dose/g tissue
Biodistribution of ^188 Re-MAG3, l. intestine ([6]; 24 h): 0.02 ± 0.00 % inj. dose/g tissue
Biodistribution of ^188 Re-MAG3, liver ([6]; 2 h): 0.03 ± 0.01 % inj. dose/g tissue
Biodistribution of ^188 Re-MAG3, liver ([6]; 6 h): 0.03 ± 0.00 % inj. dose/g tissue
Biodistribution of ^188 Re-MAG3, liver ([6]; 24 h): 0.02 ± 0.00 % inj. dose/g tissue
Biodistribution of ^188 Re-MAG3, lung ([6]; 2 h): 0.05 ± 0.02 % inj. dose/g tissue
Biodistribution of ^188 Re-MAG3, lung ([6]; 6 h): 0.02 ± 0.00 % inj. dose/g tissue
Biodistribution of ^188 Re-MAG3, lung ([6]; 24 h): 0.01 ± 0.01 % inj. dose/g tissue
Biodistribution of ^188 Re-MAG3, s. intestine ([6]; 2 h): 0.06 ± 0.04 % inj. dose/g tissue
Biodistribution of ^188 Re-MAG3, s. intestine ([6]; 6 h): 0.01 ± 0.00 % inj. dose/g tissue
Biodistribution of ^188 Re-MAG3, s. intestine ([6]; 24 h): 0.01 ± 0.00 % inj. dose/g tissue
Biodistribution of ^188 Re-MAG3, spleen ([6]; 2 h): 0.03 ± 0.02 % inj. dose/g tissue
Biodistribution of ^188 Re-MAG3, spleen ([6]; 6 h): 0.00 ± 0.01 % inj. dose/g tissue
Biodistribution of ^188 Re-MAG3, spleen ([6]; 24 h): 0.02 ± 0.01 % inj. dose/g tissue
Biodistribution of ^188 Re-MAG3, thyroid ([6]; 2 h): 0.70 ± 0.49 % inj. dose/g tissue
Biodistribution of ^188 Re-MAG3, thyroid ([6]; 6 h): 0.76 ± 0.42 % inj. dose/g tissue
Biodistribution of ^188 Re-MAG3, thyroid ([6]; 24 h): 0.74 ± 0.76 % inj. dose/g tissue
